Data taken from ChEMBL document CHEMBL6120988, “Mitochondria-targeting artesunate-rhein conjugates: Linker-modulated cell-permeability, heme-affinity and anticancer activity” (Eur J Med Chem, 2025).
The source made the active and inactive calls. The rule behind the calls is not given here.

Assays:
[1] = tested on: 4T1; experiment: Induction of apoptosis in mouse 4T1 cells assessed as early apoptotic cells by Annexin V-FITC and PI staining based flow cytometry analysis(reference value: 3.60 %); format: functional
[2] = MRT (0 to infinity) in iv dosed mouse; format: ADME, organism-based; conditions: in vivo
[3] = tested on: 4T1; experiment: Cytotoxicty against mouse 4T1 cells assessed as cell viability by MTT assay; format: functional, cell-based
[4] = tested on: 4T1; experiment: Induction of mitochondrial dysfunction in mouse 4T1 cells assessed as coupling efficiency; format: functional, cell-based
[5] = Toxicity in female BALB/c mouse allografted with mouse 4T1 cells assessed as survival rate at 10 mg/kg, iv administrated every 3 day for 5 times and measured after 22 days relative to control; format: organism-based; conditions: in vivo, 528 h, time 22 day
[6] = tested on: 4T1; experiment: Antitumor activity against mouse 4T1 cells allografted in female BALB/c mouse assessed as increase in infiltration of CD3+ CD8+ T lymphocytes in tumors at 10 mg/kg, iv administrated every 3 days for 5 times and measured after 22 days by flow cytometry analysis (reference value: 7.87 %); format: functional; conditions: time 22 day
[7] = tested on: 4T1; experiment: Induction of immunogenic cell death in mouse 4T1 cells allografted in female BALB/c mouse assessed as increase in CD80+ CD86+CD11c+ cells DC maturation at 100 mg/kg, po administrated every day for 15 times and measured after 22 days by flow cytometry (reference value: 7.20 %); format: functional; conditions: time 22 day
[8] = Toxicity against female BALB/c mouse allografted with mouse 4T1 cells assessed as mean corpuscular hemoglobin concentration at 100 mg/kg, po administrated every day for 15 times and measured after 22 days; format: organism-based; conditions: in vivo, 528 h, time 22 day
[9] = tested on: 4T1; experiment: Antitumor activity against mouse 4T1 cells allografted in female BALB/c mouse assessed as reduction in tumor tissue volume at 10 mg/kg, iv administrated every 3 day for 5 times and measured after for 22 days; format: functional, organism-based; conditions: time 22.0 day
[10] = tested on: 4T1; experiment: Induction of ROS production in mouse 4T1 cells assessed as increase in intracellular ROS level by […] staining based flow cytometry (reference value: 7.8%); format: functional
[11] = tested on: 4T1; experiment: Induction of mitochondrial dysfunction in mouse 4T1 cells assessed as maximum respiration; format: functional, cell-based
[12] = tested on: 4T1; experiment: Antitumor activity against mouse 4T1 cells allografted in female BALB/c mouse assessed as increase in apoptotic cells at 100 mg/kg, po administrated every day for 15 times and measured after 22 days by TUNEL staining based assay; format: functional, organism-based; conditions: time 22.0 day
[13] = tested on: 4T1; experiment: Induction of immunogenic cell death in mouse 4T1 cells assessed as increase in CRT expression by flow cytometry analysis (reference value: 2.55%); format: functional
[14] = Toxicity against female BALB/c mouse allografted with mouse 4T1 cells assessed as mean corpuscular hemoglobin concentration at 10 mg/kg, iv administrated every 3 days for 5 times and measured after 22 days; format: organism-based; conditions: in vivo, 528 h, time 22 day
[15] = tested on: 4T1; experiment: Antitumor activity against mouse 4T1 cells allografted in female BALB/c mouse assessed as tumor inhibition rate at 100 mg/kg, po administrated every day for 15 times and measured after 22 days relative to control; format: functional; set-up: scale not given: the % may be the effect or the level left; conditions: time 22 day
[16] = tested on: 4T1; experiment: Induction of apoptosis in mouse 4T1 cells assessed as viable cells by Annexin V-FITC and PI staining based flow cytometry analysis (reference value: 96.2 %); format: functional
[17] = AUC(0 to t) in mouse at 100 mg/kg, po; format: ADME, organism-based; conditions: in vivo
[18] = tested on: 4T1; experiment: Antitumor activity against mouse 4T1 cells allografted in female BALB/c mouse assessed as increase in infiltration of CD8+IFN-gamma+ lymphocytes in tumors at 10 mg/kg, iv administrated every day for 15 times and measured after 22 days by flow cytometry (reference value: 5.58%); format: functional; conditions: time 22 day
[19] = Half life in mouse at 100 mg/kg, po; format: ADME, organism-based; conditions: in vivo
[20] = tested on: 4T1; experiment: Antitumor activity against mouse 4T1 cells allografted in female BALB/c mouse assessed as reduction in tumor tissue weight at 100 mg/kg, po administrated every day for 15 times and measured after 22 days; format: functional, organism-based; conditions: time 22.0 day
[21] = MRT (0 to infinity) in mouse at 100 mg/kg, po; format: ADME, organism-based; conditions: in vivo
[22] = tested on: 4T1; experiment: Antitumor activity against mouse 4T1 cells allografted in female BALB/c mouse assessed as increase in apoptotic cells at 10 mg/kg, iv administrated every 3 day for 5 times and measured after 22 days by TUNEL staining based assay; format: functional, organism-based; conditions: time 22.0 day
[23] = tested on: 4T1; experiment: Antitumor activity against mouse 4T1 cells allografted in female BALB/c mouse assessed as inhibition of cell proliferation at 10 mg/kg, iv administrated every 3 day for 5 times and measured after 22 days by PCNA assay; format: functional, organism-based; conditions: time 22.0 day
[24] = Toxicity in female BALB/c mouse allografted with mouse 4T1 cells assessed as effect on blood platelet at 100 mg/kg, po administrated every day for 15 times and measured after 22 days; format: organism-based; conditions: in vivo, 528 h, time 22 day
[25] = tested on: 4T1; experiment: Antitumor activity against mouse 4T1 cells allografted in female BALB/c mouse assessed as tumor inhibition rate at 10 mg/kg, iv administrated every 3 day for 5 times and measured after 22 days relative to control; format: functional; set-up: scale not given: the % may be the effect or the level left; conditions: time 22 day
[26] = AUC(0 to t) in mouse iv dosed mouse; format: ADME, organism-based; conditions: in vivo, dose 10 mg/kg, time 3 day
[27] = tested on: 4T1; experiment: Antitumor activity against mouse 4T1 cells allografted in female BALB/c mouse assessed as disappearance of cancer cells at 10 mg/kg, iv administrated every 3 days for 5 times and measured after 22 days by H and E staining based analysis; format: functional, organism-based; conditions: time 22.0 day
[28] = tested on: 4T1; experiment: Induction of mitochondrial dysfunction in mouse 4T1 cells assessed as ATP production; format: functional, cell-based
[29] = Tmax in mouse at 100 mg/kg, po; format: ADME, organism-based; conditions: in vivo
[30] = tested on: 4T1; experiment: Antitumor activity against mouse 4T1 cells allografted in female BALB/c mouse assessed as inhibition of cell proliferation at 100 mg/kg, po administrated every day for 15 times and measured after 22 days by PCNA assay; format: functional, organism-based; conditions: time 22.0 day
[31] = tested on: 4T1; experiment: Induction of apoptosis in mouse 4T1 cells assessed as necrotic cells by Annexin V-FITC and PI staining based flow cytometry analysis (reference value: 0.085 %); format: functional
[32] = Toxicity against female BALB/c mouse allografted with mouse 4T1 cells assessed as effect on white blood cells at 100 mg/kg, po administrated every day for 15 times and measured after 22 days; format: organism-based; conditions: in vivo, 528 h, time 22 day
[33] = tested on: Mitochondrial membrane; experiment: Induction of mitochondrial membrane potential loss in mouse 4T1 cells assessed as increase in green fluorescence by JC-1 staining based flow cytometric analysis (reference value: 7.4 %); format: cell membranes
[34] = tested on: 4T1; experiment: Antitumor activity against mouse 4T1 cells allografted in female BALB/c mouse assessed as increase in infiltration of CD44+CD62L- lymphocytes in tumors at 10 mg/kg, iv administrated every day for 15 times and measured after 22 days by flow cytometry (reference value: 5.17%); format: functional; conditions: time 22 day
[35] = tested on: 4T1; experiment: Induction of apoptosis in mouse 4T1 cells assessed as late apoptotic cells by Annexin V-FITC and PI staining based flow cytometry analysis (reference value: 0.13 %); format: functional
[36] = Tmax in mouse iv dosed mouse; format: ADME, organism-based; conditions: in vivo
[37] = Toxicity in female BALB/c mouse allografted with mouse 4T1 cells assessed as change in body weight at 10 mg/kg, iv administrated every 3 day for 5 times and measured every 2 days for 22 days relative to control; format: organism-based; conditions: in vivo, 528 h, time 22 day
[38] = tested on: 4T1; experiment: Antitumor activity against mouse 4T1 cells allografted in female BALB/c mouse assessed as reduction in tumor tissue weight at 10 mg/kg, iv administrated every 3 day for 5 times and measured after for 22 days; format: functional, organism-based; conditions: time 22.0 day

Structure (SMILES): C[C@H]1[C@H](OC(=O)CCC(=O)OCCCCOC(=O)c2cc(O)c3c(c2)C(=O)c2cccc(O)c2C3=O)O[C@@H]2O[C@@]3(C)CC[C@H]4[C@H](C)CC[C@@H]1[C@@]24OO3
- Activity [1]: 34.8%
- MRT inf [2]: 7.67 h
- IC50 [3]: 1130 nM
- Activity [4]: Active
- Survival [5]: <= 39 day
- Activity [6]: 15.33%
- Activity [7]: 17.4%
- Activity [8]: Non-toxic
- Activity [9]: Active
- Activity [10]: 42.5%
- Activity [11]: Active
- Activity [12]: Active
- Activity [13]: 32.82%
- Activity [14]: Non-toxic
- Activity [15]: 76.84%
- Activity [16]: 35.5%
- AUC(0-t) [17]: 18200 ng·h/mL
- Activity [18]: 12.3%
- half-life [19]: 5.15 h
- Activity [20]: Active
- MRT inf [21]: 4.95 h
- Activity [22]: Active
- Activity [23]: Active
- Activity [24]: Non-toxic
- Activity [25]: 79.15%
- AUC(0-t) at 72 h [26]: 11500 ng·h/mL
- Activity [27]: Active
- Activity [28]: Active
- Tmax [29]: 3 h
- Activity [30]: Active
- Activity [31]: 0.27%
- Activity [32]: Non-toxic
- Activity [33]: 45.6%
- Activity [34]: 14.4%
- Activity [35]: 29.4%
- Tmax [36]: 0.17 h
- Activity [37]: Non-toxic
- Activity [38]: Active; Tumor Lighter Weight Than Pbs Treatment
